The experiment relates to MV-4-11 cells. Nature of the experiment: Gene expression microarray analysis (Affymetrix PrimeView) and GSEA. Type of experiment: cell-based, human. Also noted: RFU PODN (11730768_x_at) / Fold change /veh PODN (11730768_x_at) / RFU LINC00158 (11744669_a_at) / Fold change /veh LINC00158 (11744669_a_at) / RFU DUSP10 (11751237_a_at) / Fold change /veh DUSP10 (11751237_a_at) / RFU ID3 (11757404_x_at) / Fold change /veh ID3 (11757404_x_at) / RFU PLEKHG5 (11737974_s_at) / Fold change /veh PLEKHG5 (11737974_s_at) / RFU LRRC4B (11730491_at) / Fold change /veh LRRC4B (11730491_at) / RFU GIMAP4 (11747438_a_at) / Fold change /veh GIMAP4 (11747438_a_at) / RFU KRT8 (11758183_x_at) / Fold change /veh KRT8 (11758183_x_at) / RFU CNN1 (11734310_a_at) / Fold change /veh CNN1 (11734310_a_at) / RFU VPS37D (11726825_at) / Fold change /veh VPS37D (11726825_at) / RFU C10orf10 (11716522_x_at) / Fold change /veh C10orf10 (11716522_x_at) / RFU KIR2DL2 /// KIR2DL4 /// KIR2DL5A /// KIR2DL5B /// KIR2DS1 /// KIR2DS2 /// KIR2DS3 /// KIR2DS4 /// KIR3DL3 /// KIR3DL3 /// KIR3DS1 (11738374_at) / Fold change /veh KIR2DL2 /// KIR2DL4 /// KIR2DL5A /// KIR2DL5B /// KIR2DS1 /// KIR2DS2 /// KIR2DS3 /// KIR2DS4 /// KIR3DL3 /// KIR3DL3 /// KIR3DS1 (11738374_at) / RFU C1QL1 (11718748_at) / Fold change /veh C1QL1 (11718748_at) / RFU TMPRSS4 (11747572_a_at) / Fold change /veh TMPRSS4 (11747572_a_at) / RFU HAMP (11756126_x_at) / Fold change /veh HAMP (11756126_x_at) / RFU RNFT2 (11725882_a_at) / Fold change /veh RNFT2 (11725882_a_at) / RFU NR4A2 (11747474_a_at) / Fold change /veh NR4A2 (11747474_a_at) / RFU ABCC12 (11746883_a_at) / Fold change /veh ABCC12 (11746883_a_at) / RFU TMEM136 (11760407_x_at) / Fold change /veh TMEM136 (11760407_x_at) / RFU CLDN22 /// WWC2 (11732394_at) / Fold change /veh CLDN22 /// WWC2 (11732394_at) / RFU HLA-DPB1 (11760878_x_at) / Fold change /veh HLA-DPB1 (11760878_x_at) / RFU SPINT1 (11716480_a_at) / Fold change /veh SPINT1 (11716480_a_at) / RFU GAP43 (11754022_s_at) / Fold change /veh GAP43 (11754022_s_at) / RFU A4GNT (11735810_at) / Fold change /veh A4GNT (11735810_at) / RFU PRB3 (11715151_x_at) / Fold change /veh PRB3 (11715151_x_at) / RFU TUBB4B (11761932_at) / Fold change /veh TUBB4B (11761932_at) / RFU CAPN14 (11732068_a_at) / Fold change /veh CAPN14 (11732068_a_at) / RFU TMCC2 (11721928_a_at) / Fold change /veh TMCC2 (11721928_a_at) / RFU IRGQ (11745062_a_at) / Fold change /veh IRGQ (11745062_a_at) / RFU FAM174B (11720279_a_at) / Fold change /veh FAM174B (11720279_a_at) / RFU TMPRSS4 (11748680_a_at) / Fold change /veh TMPRSS4 (11748680_a_at) / RFU FAM212B (11763350_a_at) / Fold change /veh FAM212B (11763350_a_at) / RFU PLEKHG5 (11743358_a_at) / Fold change /veh PLEKHG5 (11743358_a_at) / RFU ZSCAN30 (11745921_a_at) / Fold change /veh ZSCAN30 (11745921_a_at) / RFU CMKLR1 (11741424_a_at) / Fold change /veh CMKLR1 (11741424_a_at) / RFU LOC101060620 /// MAPK8IP1 (11723275_at) / Fold change /veh LOC101060620 /// MAPK8IP1 (11723275_at) / RFU SPTSSB (11747773_x_at) / Fold change /veh SPTSSB (11747773_x_at) / RFU PRSS12 (11739890_at) / Fold change /veh PRSS12 (11739890_at) / RFU BIN1 (11741810_x_at) / Fold change /veh BIN1 (11741810_x_at) / RFU WNT11 (11732464_a_at) / Fold change /veh WNT11 (11732464_a_at) / RFU C10orf10 (11716521_a_at) / Fold change /veh C10orf10 (11716521_a_at) / RFU C5orf56 (11738089_at) / Fold change /veh C5orf56 (11738089_at) / RFU CYB561 (11721691_x_at) / Fold change /veh CYB561 (11721691_x_at) / RFU ANKRD19P (11752326_a_at) / Fold change /veh ANKRD19P (11752326_a_at) / RFU OR2T12 /// OR2T33 /// OR2T8 (11738714_s_at) / Fold change /veh OR2T12 /// OR2T33 /// OR2T8 (11738714_s_at) / RFU VCAN (11748164_a_at) / Fold change /veh VCAN (11748164_a_at) / RFU JSRP1 (11732532_at) / Fold change /veh JSRP1 (11732532_at) / RFU KRTAP10-11 (11738290_x_at) / Fold change /veh KRTAP10-11 (11738290_x_at) / RFU MYO3A (11730013_a_at) / Fold change /veh MYO3A (11730013_a_at) / RFU EBF3 (11725865_a_at) / Fold change /veh EBF3 (11725865_a_at) / RFU CAMK2N1 (11719241_x_at) / Fold change /veh CAMK2N1 (11719241_x_at) / RFU C5orf56 (11738088_a_at) / Fold change /veh C5orf56 (11738088_a_at) / RFU OLFML3 (11715873_a_at) / Fold change /veh OLFML3 (11715873_a_at) / RFU LOC100653217 /// NTM (11731650_a_at) / Fold change /veh LOC100653217 /// NTM (11731650_a_at) / RFU MAPK11 (11762145_a_at) / Fold change /veh MAPK11 (11762145_a_at) / RFU FIZ1 (11724087_x_at) / Fold change /veh FIZ1 (11724087_x_at) / RFU OASL (11726364_x_at) / Fold change /veh OASL (11726364_x_at) / RFU SOX15 (11748057_x_at) / Fold change /veh SOX15 (11748057_x_at) / RFU CD79A (11719716_a_at) / Fold change /veh CD79A (11719716_a_at) / RFU HIST1H1D (11736915_at) / Fold change /veh HIST1H1D (11736915_at) / RFU CASKIN2 (11723855_a_at) / Fold change /veh CASKIN2 (11723855_a_at) / RFU LOC730098 (11760151_x_at) / Fold change /veh LOC730098 (11760151_x_at) / RFU OR4N2 (11742367_at) / Fold change /veh OR4N2 (11742367_at) / RFU PRRT2 (11749266_a_at) / Fold change /veh PRRT2 (11749266_a_at) / RFU SNX32 (11753110_a_at) / Fold change /veh SNX32 (11753110_a_at) / RFU CDHR5 (11726645_a_at) / Fold change /veh CDHR5 (11726645_a_at) / RFU RCAN1 (11760418_a_at) / Fold change /veh RCAN1 (11760418_a_at) / RFU FAM167A (11723789_a_at) / Fold change /veh FAM167A (11723789_a_at) / RFU FAM26E (11764081_at) / Fold change /veh FAM26E (11764081_at) / RFU ISYNA1 (11749810_s_at) / Fold change /veh ISYNA1 (11749810_s_at) / RFU ACY1 (11761880_at) / Fold change /veh ACY1 (11761880_at) / RFU 11764098_at / Fold change /veh 11764098_at / RFU SAMD14 (11745864_x_at) / Fold change /veh SAMD14 (11745864_x_at) / RFU NPB (11741838_a_at) / Fold change /veh NPB (11741838_a_at) / RFU TMPRSS6 (11731388_a_at) / Fold change /veh TMPRSS6 (11731388_a_at) / RFU KRTAP10-2 (11738614_at) / Fold change /veh KRTAP10-2 (11738614_at) / RFU ARHGAP8 /// PRR5-ARHGAP8 (11727945_x_at) / Fold change /veh ARHGAP8 /// PRR5-ARHGAP8 (11727945_x_at) / RFU KRTAP5-7 /// NADSYN1 (11734609_at) / Fold change /veh KRTAP5-7 /// NADSYN1 (11734609_at) / RFU RASL12 (11751679_a_at) / Fold change /veh RASL12 (11751679_a_at) / RFU CDKN2B (11736163_a_at) / Fold change /veh CDKN2B (11736163_a_at) / RFU PRF1 (11729649_at) / Fold change /veh PRF1 (11729649_at) / RFU, ZNF638 /// ZNF638-IT1 / Fold change vs veh, ZNF638 /// ZNF638-IT1 / RFU, PANK3 / Fold change vs veh, PANK3 / RFU, SH3YL1 / Fold change vs veh, SH3YL1 / RFU, ZEB2 / Fold change vs veh, ZEB2 / RFU, NRIP1 / Fold change vs veh, NRIP1 / RFU, PTTG1IP / Fold change vs veh, PTTG1IP / RFU, CAPN2 / Fold change vs veh, CAPN2 / RFU, MED14 / Fold change vs veh, MED14 / RFU, SNORA58 / Fold change vs veh, SNORA58 / RFU, C1orf63 / Fold change vs veh, C1orf63 / RFU, LRRFIP1 / Fold change vs veh, LRRFIP1 / RFU, NDUFAF7 / Fold change vs veh, NDUFAF7 / RFU, SLC12A2 / Fold change vs veh, SLC12A2 / RFU, IBTK / Fold change vs veh, IBTK / RFU, ESF1 / Fold change vs veh, ESF1 / Fold change vs veh, TMEM50B / RFU, TAOK1 / Fold change vs veh, TAOK1 / RFU, ACBD3 / Fold change vs veh, ACBD3 / RFU, TMA16 / Fold change vs veh, TMA16 / RFU, RWDD3 / Fold change vs veh, RWDD3 / RFU, BCAT1 / Fold change vs veh, BCAT1 / RFU, EDEM3 / Fold change vs veh, EDEM3 / RFU, TMEM33 / Fold change vs veh, TMEM33 / RFU, WDR75 / Fold change vs veh, WDR75 / RFU, AHCTF1 / Fold change vs veh, AHCTF1 / RFU, TFRC / Fold change vs veh, TFRC / RFU, ZDHHC17 / Fold change vs veh, ZDHHC17 / RFU, NOM1 / Fold change vs veh, NOM1 / RFU, ARL8B / Fold change vs veh, ARL8B / RFU, ZBTB11 / Fold change vs veh, ZBTB11 / RFU, TAMM41 / Fold change vs veh, TAMM41 / RFU, KIAA1704 /// LOC100996395 / Fold change vs veh, KIAA1704 /// LOC100996395 / RFU, ING1 / Fold change vs veh, ING1 / RFU, TRMT61B / Fold change vs veh, TRMT61B / RFU, FUBP3 / Fold change vs veh, FUBP3 / RFU, TP53 / Fold change vs veh, TP53 / RFU, TNKS2 / Fold change vs veh, TNKS2 / RFU, ZFP14 / Fold change vs veh, ZFP14 / RFU, ACTR2 / Fold change vs veh, ACTR2 / RFU, PPP3R1 / Fold change vs veh, PPP3R1 / RFU, PIK3R1 / Fold change vs veh, PIK3R1 / RFU, HNRNPA1 / Fold change vs veh, HNRNPA1 / RFU, RNF170 / Fold change vs veh, RNF170 / RFU, ZNF28 / Fold change vs veh, ZNF28 / RFU, RNGTT / Fold change vs veh, RNGTT / RFU, OGT / Fold change vs veh, OGT / RFU, BRD1 / Fold change vs veh, BRD1 / RFU, MARS / Fold change vs veh, MARS / RFU, ZNF655 / Fold change vs veh, ZNF655 / RFU, FAHD1 / Fold change vs veh, FAHD1 / RFU, BDP1 / Fold change vs veh, BDP1 / RFU, LRRCC1 / Fold change vs veh, LRRCC1 / RFU, ARID1A / Fold change vs veh, ARID1A / RFU, ZNF146 / Fold change vs veh, ZNF146 / RFU, ZNF330 / Fold change vs veh, ZNF330 / RFU, GPN3 / Fold change vs veh, GPN3 / RFU, C9orf123 / Fold change vs veh, C9orf123 / RFU, N4BP2L2 / Fold change vs veh, N4BP2L2 / RFU, ARFIP1 / Fold change vs veh, ARFIP1 / RFU, FAM179B / Fold change vs veh, FAM179B / RFU, BCL10 / Fold change vs veh, BCL10 / RFU, UHRF1BP1L / Fold change vs veh, UHRF1BP1L / RFU, BET1 / Fold change vs veh, BET1 / RFU, CNOT2 / Fold change vs veh, CNOT2 / RFU, ZNF268 / Fold change vs veh, ZNF268 / Fold change vs veh, ZNF507 / RFU, DGCR2 / Fold change vs veh, DGCR2 / RFU, WDSUB1 / Fold change vs veh, WDSUB1 / Fold change vs veh, HSP90B1 /// MIR3652 / RFU, ADSS / Fold change vs veh, ADSS / RFU, GK / Fold change vs veh, GK / RFU, ZNF148 / Fold change vs veh, ZNF148 / RFU, TAF9 / Fold change vs veh, TAF9 / RFU, SLC1A5 / Fold change vs veh, SLC1A5 / RFU, SLMO2 / Fold change vs veh, SLMO2 / RFU, ABCC4 / Fold change vs veh, ABCC4 / RFU, LOC101060439 /// RAP1B / Fold change vs veh, LOC101060439 /// RAP1B / RFU, RFX7 / Fold change vs veh, RFX7 / RFU, GTPBP10 / Fold change vs veh, GTPBP10 / RFU, CNEP1R1 / Fold change vs veh, CNEP1R1 / RFU, BIVM-ERCC5 /// ERCC5 / Fold change vs veh, BIVM-ERCC5 /// ERCC5 / RFU, ILF3 / Fold change vs veh, ILF3 / RFU 11762660_at / Fold change /veh 11762660_at / RFU VCAN (11757783_s_at) / Fold change /veh VCAN (11757783_s_at) / RFU DDX43 (11728927_at) / Fold change /veh DDX43 (11728927_at) / RFU KRT8 (11758188_x_at) / Fold change /veh KRT8 (11758188_x_at) / RFU NKD1 (11759106_at) / Fold change /veh NKD1 (11759106_at) / RFU SRD5A1 (11742802_a_at) / Fold change /veh SRD5A1 (11742802_a_at) / RFU TPSAB1 /// TPSB2 (11721975_s_at) / Fold change /veh TPSAB1 /// TPSB2 (11721975_s_at) / RFU GSTM3 (11746129_a_at) / Fold change /veh GSTM3 (11746129_a_at) / RFU IL23R (11737362_x_at) / Fold change /veh IL23R (11737362_x_at) / RFU TMEM51 (11727254_a_at) / Fold change /veh TMEM51 (11727254_a_at) / RFU PIWIL2 (11732686_x_at) / Fold change /veh PIWIL2 (11732686_x_at) / RFU ORM1 (11744905_x_at) / Fold change /veh ORM1 (11744905_x_at) / RFU CCDC152 (11743942_at) / Fold change /veh CCDC152 (11743942_at) / RFU ECM1 (11717891_a_at) / Fold change /veh ECM1 (11717891_a_at) / RFU IL23R (11748794_a_at) / Fold change /veh IL23R (11748794_a_at) / RFU TNFAIP8L3 (11732012_x_at) / Fold change /veh TNFAIP8L3 (11732012_x_at) / RFU MBOAT4 (11741988_at) / Fold change /veh MBOAT4 (11741988_at) / RFU 11764193_at / Fold change /veh 11764193_at / RFU TMEM53 (11763286_at) / Fold change /veh TMEM53 (11763286_at) / RFU MAGEB2 (11727129_at) / Fold change /veh MAGEB2 (11727129_at) / RFU TMEM200A (11744735_a_at) / Fold change /veh TMEM200A (11744735_a_at) / RFU CCDC152 (11751479_a_at) / Fold change /veh CCDC152 (11751479_a_at) / RFU FAM211A (11726209_a_at) / Fold change /veh FAM211A (11726209_a_at) / RFU RGS16 (11746705_a_at) / Fold change /veh RGS16 (11746705_a_at) / RFU VCAN (11755009_s_at) / Fold change /veh VCAN (11755009_s_at) / RFU RHOB (11743442_s_at) / Fold change /veh RHOB (11743442_s_at) / RFU RGS16 (11720943_a_at) / Fold change /veh RGS16 (11720943_a_at) / RFU RGS16 (11720944_at) / Fold change /veh RGS16 (11720944_at) / RFU, VPS4B / Fold change vs veh, VPS4B / RFU, CREB1 / Fold change vs veh, CREB1 / RFU, DNAJC13 / Fold change vs veh, DNAJC13 / RFU, GNAQ / Fold change vs veh, GNAQ / RFU, CDK5R1 / Fold change vs veh, CDK5R1 / RFU, ZRANB3 / Fold change vs veh, ZRANB3 / RFU, CUL4A / Fold change vs veh, CUL4A / RFU, CCNY / Fold change vs veh, CCNY / RFU, UFL1 / Fold change vs veh, UFL1 / RFU, COG3 / Fold change vs veh, COG3 / RFU, DIAPH2 / Fold change vs veh, DIAPH2 / RFU, SKA2 / Fold change vs veh, SKA2 / RFU, AFF3 / Fold change vs veh, AFF3 / RFU, LMF1 / Fold change vs veh, LMF1 / RFU, IPO11 / Fold change vs veh, IPO11 / RFU, DFFB / Fold change vs veh, DFFB / RFU, FOXP1 / Fold change vs veh, FOXP1 / RFU, CARD8 / Fold change vs veh, CARD8 / RFU, STRN3 / Fold change vs veh, STRN3 / RFU, ADK / Fold change vs veh, ADK / RFU, RASSF2 / Fold change vs veh, RASSF2 / RFU, WIPF1 / Fold change vs veh, WIPF1 / RFU, LARP1B / Fold change vs veh, LARP1B / RFU, RASA1 / Fold change vs veh, RASA1 / RFU, RB1 / Fold change vs veh, RB1 / RFU, PPFIA1 / Fold change vs veh, PPFIA1 / RFU, MAT2A / Fold change vs veh, MAT2A / RFU, CCT5 / Fold change vs veh, CCT5 / RFU, WDR92 / Fold change vs veh, WDR92 / RFU, CUX1 / Fold change vs veh, CUX1 / RFU, TTC7A / Fold change vs veh, TTC7A / RFU, TMEM135 / Fold change vs veh, TMEM135 / RFU, DEPTOR / Fold change vs veh, DEPTOR / RFU, CPM / Fold change vs veh, CPM / RFU, DNAJB6 / Fold change vs veh, DNAJB6 / RFU, CACNA2D3 / Fold change vs veh, CACNA2D3 / RFU, DTX4 / Fold change vs veh, DTX4 / RFU, TFCP2 / Fold change vs veh, TFCP2 / RFU, GMCL1 /// GMCL1P1 / Fold change vs veh, GMCL1 /// GMCL1P1 / RFU, AEBP2 / Fold change vs veh, AEBP2 / RFU, SNHG1 /// SNORD22 /// SNORD25 /// SNORD26 /// SNORD27 /// SNORD28 /// SNORD29 /// SNORD31 / Fold change vs veh, SNHG1 /// SNORD22 /// SNORD25 /// SNORD26 /// SNORD27 /// SNORD28 /// SNORD29 /// SNORD31 / Fold change (Aza/veh), C12orf56 (ProbeSet 11735607_a_at) / Fold change (ACY-1035/veh), C12orf56 (ProbeSet 11735607_a_at) / Fold change (Aza/veh), FGFR1OP (ProbeSet 11751329_s_at) / Fold change (ACY-1035/veh), FGFR1OP (ProbeSet 11751329_s_at) / Fold change (Aza/veh), VPS36 (ProbeSet 11739960_a_at) / Fold change (ACY-1035/veh), VPS36 (ProbeSet 11739960_a_at) / RFU SYPL1 (11715823_x_at) / Fold change /veh SYPL1 (11715823_x_at) / RFU IGFBP7 (11715501_s_at) / Fold change /veh IGFBP7 (11715501_s_at) / RFU REEP3 (11722064_at) / Fold change /veh REEP3 (11722064_at) / RFU IGLL1 (11728026_x_at) / Fold change /veh IGLL1 (11728026_x_at): dose or concentration left out as unconfirmed. Conditions: ProbeSet 11715478_a_at; LIST B.

The structures appear in SMILES notation.

As to `Nc1ncn([C@@H]2O[C@H](CO)[C@@H](O)[C@H]2O)c(=O)n1` [azacitidine], the “RFU, TFRC” value came to 131.21 RFU.

(Values after PMC5218480 (PLoS ONE, 2017).)
